Laboratory results: patent US20150045425A1, “PELTATIN AND METABOLIC DISORDERS” (NESTEC S.A., priority 2012, published 2015)

Tested on: HeLa cells
Assay: Cellular toxicity, standard method, compared to untreated cells
Assay type: cell-based, human
Details: up to highest dose used
Description: The AC50 (upper part of the insert) and the maximum % activation (lower part of the insert) are given. Cellular toxicity was also assessed with standard method compared to untreated cells and shown in % of toxicity.
An edible plant fraction library was tested for PPARs agonist activity and toxicity. Then relevant plant fractions were further analyzed and bioactive(s) characterized and validated with the same hPPARa, hPPARg or hPPARd reporter bioassays. The reporter bioassay we used in order to identify anti-inflammatory plant properties targeted activation of human PPARs in human HeLa cells (as described in the FIG. 1). All isolated bioactives were tested in a dose response manner in duplicate. Assays were repeated 3-4 times. Shown are mean values obtained. Therefore specificity (for all the three known human PPAR receptors namely PPARa, PPARd and PPARg) and efficacy (full agonist i.e. % maximal activity >100% or partial agonist i.e. % maximal activity <100%) were tested (FIG. 2-4).

Measured: Cellular toxicity (% of toxicity)

COc1cc([C@@H]2c3cc4c(c(O)c3C[C@H]3COC(=O)[C@@H]32)OCO4)cc(OC)c1OC [beta-Peltatin]
no toxicity was observed: FIG. 2, PPARa activation dose-response | FIG. 3, PPARg activation dose-response | FIG. 4, PPARd activation dose-response
